# Data as given in ChEMBL document CHEMBL1201862, “PubChem BioAssay data set” (2004).
# Active and inactive are the calls of the source.
# Experiments:
# [1] = target: T1, Alkaline phosphatase, tissue-nonspecific isozyme (Homo sapiens, UniProt P05186)
# T1 sequence (P05186 whole entry): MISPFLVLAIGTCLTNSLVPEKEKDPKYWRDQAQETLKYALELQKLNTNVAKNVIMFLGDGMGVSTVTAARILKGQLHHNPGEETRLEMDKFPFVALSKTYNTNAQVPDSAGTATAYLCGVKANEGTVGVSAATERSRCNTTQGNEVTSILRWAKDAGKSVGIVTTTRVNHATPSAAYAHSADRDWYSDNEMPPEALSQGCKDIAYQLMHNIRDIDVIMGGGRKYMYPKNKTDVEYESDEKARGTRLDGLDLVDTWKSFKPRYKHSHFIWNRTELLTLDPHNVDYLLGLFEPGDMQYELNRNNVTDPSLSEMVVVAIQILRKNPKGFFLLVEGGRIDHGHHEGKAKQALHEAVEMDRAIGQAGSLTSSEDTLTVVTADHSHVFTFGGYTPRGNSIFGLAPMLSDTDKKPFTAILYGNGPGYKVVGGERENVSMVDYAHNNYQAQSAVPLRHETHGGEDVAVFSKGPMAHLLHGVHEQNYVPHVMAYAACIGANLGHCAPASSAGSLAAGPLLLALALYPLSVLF
# [2] = C. albicans growth with fluconazole, confirmation, fluorescence, retest (AID 2467); assay type: functional, cell-based
# Saccharomyces cerevisiae = test: NALP1 inhibitor project selectivity study, Caspase-1/ASC signal blockade IC50 in S. cerevisiae (AID 488863); assay type: functional, organism-based
# [3] = target: NACHT, LRR and PYD domains-containing protein 1 (Homo sapiens, UniProt Q9C000); test: NALP1 inhibitors in yeast, dose response, luminescent (AID 488860); assay type: functional
# BJ [4] = test: cytotoxicity toward BJ-TERT fibroblasts, dose response, cell-based, RAS-independent, luminescence (AID 1933); assay type: functional; conditions: Homo sapiens
# BJ [5] = test: cells; assay type: functional, cell-based; conditions: Homo sapiens
# J774.A1 = test: Confirmation of image-based Screening Assay for Inhibitors of Phagocytosis. [Related pubchem assays (depositor defined):AID1029, AID1643]; assay type: functional, cell-based; conditions: Mus musculus
# BJ [6] = test: cytotoxicity toward BJ-TERT-LT-ST fibroblasts, dose response, cell-based, RAS-independent, luminescence (AID 1935); assay type: functional; conditions: Homo sapiens;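 further: BJ fibroblasts immortalized with TERT plus LT and ST oncogenes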
# [7] = cytotoxicity toward DRD oncogenic fibroblasts, dose response, cell-based, non-viral oncogenic, luminescence (AID 1934); assay type: functional; conditions: Homo sapiens
# [8] = cytotoxicity in HEK-293T cells, dose response, cytotoxicity control for TCR NF-kB inhibitor project, luminescence, T-cell screen hits (AID 489026); assay type: functional, cell-based;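 further: cells exposed to compound about 14 hours before the viability readout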
# Protein Rev = target: T2, Protein Rev (Human immunodeficiency virus type 1 group M subtype B (isolate HXB2)(HIV-1), UniProt P04618); test: inhibitors of Rev binding to RRE RNA, dose response, biochemical, fluorescence polarization, HIV-1 (AID 434976); design: species or system Human immunodeficiency virus 1
# T2 sequence (P04618 whole entry): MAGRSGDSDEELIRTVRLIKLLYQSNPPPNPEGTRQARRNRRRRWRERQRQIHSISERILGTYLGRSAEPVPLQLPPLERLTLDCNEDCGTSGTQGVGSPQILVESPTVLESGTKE
# [9] = target: T3, Heat shock 70 kDa protein 1A (Homo sapiens, UniProt P0DMV8); test: Hsp70 inhibitors, biochemical, TR-FRET (AID 786)
# [10] = target: T4, Female germline-specific tumor suppressor gld-1 (Caenorhabditis elegans, UniProt Q17339); test: inhibitors of GLD-1 binding to TGE RNA, dose response, biochemical, fluorescence polarization, C. elegans (AID 2802);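 further: fluorescence polarization of labeled TGE RNA bound by purified gld-1 protein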
# T4 sequence (Q17339 whole entry): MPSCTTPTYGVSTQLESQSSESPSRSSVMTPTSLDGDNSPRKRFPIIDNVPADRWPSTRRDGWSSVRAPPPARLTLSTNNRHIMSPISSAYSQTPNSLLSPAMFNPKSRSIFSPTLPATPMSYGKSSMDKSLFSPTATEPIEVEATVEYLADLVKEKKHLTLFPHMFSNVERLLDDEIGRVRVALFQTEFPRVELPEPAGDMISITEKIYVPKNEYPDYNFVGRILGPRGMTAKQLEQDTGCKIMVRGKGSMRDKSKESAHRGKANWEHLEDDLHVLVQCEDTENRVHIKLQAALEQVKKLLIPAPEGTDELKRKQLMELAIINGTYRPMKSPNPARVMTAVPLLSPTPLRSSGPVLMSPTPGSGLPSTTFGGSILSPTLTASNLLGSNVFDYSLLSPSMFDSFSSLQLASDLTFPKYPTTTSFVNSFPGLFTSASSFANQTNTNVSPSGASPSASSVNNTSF
# [11] = target: T5, RNA-binding protein pos-1 (Caenorhabditis elegans, UniProt G5EF15); test: inhibitors of POS-1/mex-3 RNA binding, dose response, biochemical, fluorescence polarization (AID 1964);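 further: purified POS-1 fused to maltose binding protein made in E. coli; potency of compounds blocking POS-1 binding to fluorescent RNA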
# T5 sequence (G5EF15 whole entry): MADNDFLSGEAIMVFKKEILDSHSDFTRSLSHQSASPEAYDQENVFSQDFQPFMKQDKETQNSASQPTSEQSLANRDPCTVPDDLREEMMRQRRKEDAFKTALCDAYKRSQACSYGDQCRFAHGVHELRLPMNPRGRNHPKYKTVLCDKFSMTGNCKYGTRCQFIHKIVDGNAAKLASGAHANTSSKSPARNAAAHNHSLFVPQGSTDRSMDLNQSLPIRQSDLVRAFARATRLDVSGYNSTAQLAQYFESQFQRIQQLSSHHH
# [12] = target: T3, Heat shock 70 kDa protein 1A; test: Hsp70 inhibitors, probe displacement, primary screen, biochemical, fluorescence polarization (AID 583)
# [13] = target: T6, Zinc finger protein mex-5 (Caenorhabditis elegans, UniProt Q9XUB2); test: MEX-5/TCR-2 RNA interaction inhibitors, dose response, biochemical, C. elegans, fluorescence polarization (AID 1960)
# T6 sequence (Q9XUB2 whole entry): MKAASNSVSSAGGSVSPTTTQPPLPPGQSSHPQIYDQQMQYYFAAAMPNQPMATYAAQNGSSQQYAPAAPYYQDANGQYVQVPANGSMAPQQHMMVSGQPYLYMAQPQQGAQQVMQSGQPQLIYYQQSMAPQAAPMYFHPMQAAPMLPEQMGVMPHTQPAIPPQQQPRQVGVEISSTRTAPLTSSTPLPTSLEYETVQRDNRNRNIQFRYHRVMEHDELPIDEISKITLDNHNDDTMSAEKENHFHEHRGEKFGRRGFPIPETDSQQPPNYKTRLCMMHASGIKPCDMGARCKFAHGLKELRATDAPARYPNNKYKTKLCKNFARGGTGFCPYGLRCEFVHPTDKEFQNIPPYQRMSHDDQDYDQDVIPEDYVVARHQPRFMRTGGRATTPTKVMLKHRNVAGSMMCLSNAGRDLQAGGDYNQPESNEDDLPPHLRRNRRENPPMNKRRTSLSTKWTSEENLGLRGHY
# [14] = target: T7, Polyadenylate-binding protein 1 (Homo sapiens, UniProt P11940); test: PABP1 MLLE–PAM2 interaction inhibitors, dose response, miRNA deadenylation inhibitor project, biochemical, fluorescence polarization, Cy5-PAM2 peptide, secondary (AID 602260); assay type: functional; conditions: read-out: IC50_Mean
# [15] = target: T7, Polyadenylate-binding protein 1; test: PABP1 MLLE–PAM2 binding inhibitor potency, dose response, biochemical, fluorescence polarization, FITC-PAM2 peptide (AID 602259); assay type: functional; conditions: read-out: IC50_Mean
# [16] = HepG2 cell cytotoxicity, dose response, cytotoxicity control, ATP luminescence, cherry-pick, set 6 (AID 1053125); assay type: functional, cell-based
# [17] = target: Lysosomal acid glucosylceramidase (Homo sapiens, UniProt P04062); test: Dose response cell-based high throughput screening assay to identify enhancers of beta-glucosidase activity. [Related pubchem assays: 784 ]; assay type: functional
# [18] = target: NACHT, LRR and PYD domains-containing protein 3 (Homo sapiens, UniProt Q96P20); test: NALP3 inhibitors in yeast, dose response, luminescent (AID 488799); assay type: functional
# Chain of NACHT, LRR and PYD domains-containing protein 3 (Q96P20 whole entry, the tested form may be a part): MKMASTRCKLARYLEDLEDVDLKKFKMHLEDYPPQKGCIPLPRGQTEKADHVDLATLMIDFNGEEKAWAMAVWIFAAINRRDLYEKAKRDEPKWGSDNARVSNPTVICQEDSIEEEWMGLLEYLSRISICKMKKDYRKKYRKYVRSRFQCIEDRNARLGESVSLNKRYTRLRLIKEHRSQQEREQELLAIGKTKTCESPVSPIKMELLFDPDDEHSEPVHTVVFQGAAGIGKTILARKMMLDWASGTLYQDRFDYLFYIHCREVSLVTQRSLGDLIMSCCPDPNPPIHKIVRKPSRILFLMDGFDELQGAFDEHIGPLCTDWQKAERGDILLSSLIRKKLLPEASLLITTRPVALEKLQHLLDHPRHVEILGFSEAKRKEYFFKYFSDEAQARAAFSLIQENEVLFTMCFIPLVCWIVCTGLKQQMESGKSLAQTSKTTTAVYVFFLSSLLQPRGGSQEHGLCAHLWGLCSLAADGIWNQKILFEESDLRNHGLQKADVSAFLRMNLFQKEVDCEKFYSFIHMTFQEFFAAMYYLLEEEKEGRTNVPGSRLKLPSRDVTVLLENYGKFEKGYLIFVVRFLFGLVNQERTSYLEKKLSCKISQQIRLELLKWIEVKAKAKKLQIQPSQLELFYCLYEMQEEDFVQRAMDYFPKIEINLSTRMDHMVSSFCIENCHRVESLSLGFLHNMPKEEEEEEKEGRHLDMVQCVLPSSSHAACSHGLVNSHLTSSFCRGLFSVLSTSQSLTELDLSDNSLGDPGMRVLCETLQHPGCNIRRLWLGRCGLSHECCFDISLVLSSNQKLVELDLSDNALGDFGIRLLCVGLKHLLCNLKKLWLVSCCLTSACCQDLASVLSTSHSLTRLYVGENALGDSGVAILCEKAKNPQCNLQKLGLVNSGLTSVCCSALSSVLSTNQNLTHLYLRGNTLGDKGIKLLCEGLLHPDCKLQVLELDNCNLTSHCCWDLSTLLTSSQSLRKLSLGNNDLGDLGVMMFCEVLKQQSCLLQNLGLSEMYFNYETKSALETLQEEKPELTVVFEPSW
# T3 sequence (P0DMV8 whole entry): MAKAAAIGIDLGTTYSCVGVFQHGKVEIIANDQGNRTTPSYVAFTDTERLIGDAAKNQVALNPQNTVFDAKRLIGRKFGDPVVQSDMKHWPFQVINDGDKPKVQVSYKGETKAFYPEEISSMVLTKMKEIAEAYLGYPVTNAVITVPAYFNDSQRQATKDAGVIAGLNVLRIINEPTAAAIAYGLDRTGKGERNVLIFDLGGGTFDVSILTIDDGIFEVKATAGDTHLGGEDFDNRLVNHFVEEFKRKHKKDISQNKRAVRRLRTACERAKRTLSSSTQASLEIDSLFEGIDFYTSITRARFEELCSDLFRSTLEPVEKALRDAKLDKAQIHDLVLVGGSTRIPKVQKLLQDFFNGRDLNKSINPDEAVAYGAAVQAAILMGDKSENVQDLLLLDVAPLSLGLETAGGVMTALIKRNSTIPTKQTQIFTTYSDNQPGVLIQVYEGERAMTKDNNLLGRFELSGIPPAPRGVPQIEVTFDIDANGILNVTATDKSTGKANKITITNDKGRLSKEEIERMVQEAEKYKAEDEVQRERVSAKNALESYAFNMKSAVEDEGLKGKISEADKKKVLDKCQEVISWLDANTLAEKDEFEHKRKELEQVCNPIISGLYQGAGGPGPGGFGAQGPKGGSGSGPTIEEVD
# T7 sequence (P11940 whole entry): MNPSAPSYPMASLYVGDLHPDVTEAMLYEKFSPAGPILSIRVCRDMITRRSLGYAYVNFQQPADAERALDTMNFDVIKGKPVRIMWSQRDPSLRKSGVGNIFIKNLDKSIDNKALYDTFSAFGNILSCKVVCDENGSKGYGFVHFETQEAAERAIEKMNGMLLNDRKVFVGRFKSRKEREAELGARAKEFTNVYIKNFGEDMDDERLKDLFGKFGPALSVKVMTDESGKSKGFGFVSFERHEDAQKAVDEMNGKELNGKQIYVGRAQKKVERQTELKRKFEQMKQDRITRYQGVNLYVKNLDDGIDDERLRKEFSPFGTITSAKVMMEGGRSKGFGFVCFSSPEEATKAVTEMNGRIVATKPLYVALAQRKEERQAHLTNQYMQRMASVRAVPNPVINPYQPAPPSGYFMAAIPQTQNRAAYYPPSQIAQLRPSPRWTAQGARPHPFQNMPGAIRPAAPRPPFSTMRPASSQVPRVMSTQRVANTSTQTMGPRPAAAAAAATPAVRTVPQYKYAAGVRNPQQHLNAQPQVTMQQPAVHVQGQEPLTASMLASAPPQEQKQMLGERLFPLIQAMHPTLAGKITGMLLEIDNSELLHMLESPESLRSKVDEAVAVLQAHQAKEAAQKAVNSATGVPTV
# Chain of NACHT, LRR and PYD domains-containing protein 1 (Q9C000 1-1212 limits assumed): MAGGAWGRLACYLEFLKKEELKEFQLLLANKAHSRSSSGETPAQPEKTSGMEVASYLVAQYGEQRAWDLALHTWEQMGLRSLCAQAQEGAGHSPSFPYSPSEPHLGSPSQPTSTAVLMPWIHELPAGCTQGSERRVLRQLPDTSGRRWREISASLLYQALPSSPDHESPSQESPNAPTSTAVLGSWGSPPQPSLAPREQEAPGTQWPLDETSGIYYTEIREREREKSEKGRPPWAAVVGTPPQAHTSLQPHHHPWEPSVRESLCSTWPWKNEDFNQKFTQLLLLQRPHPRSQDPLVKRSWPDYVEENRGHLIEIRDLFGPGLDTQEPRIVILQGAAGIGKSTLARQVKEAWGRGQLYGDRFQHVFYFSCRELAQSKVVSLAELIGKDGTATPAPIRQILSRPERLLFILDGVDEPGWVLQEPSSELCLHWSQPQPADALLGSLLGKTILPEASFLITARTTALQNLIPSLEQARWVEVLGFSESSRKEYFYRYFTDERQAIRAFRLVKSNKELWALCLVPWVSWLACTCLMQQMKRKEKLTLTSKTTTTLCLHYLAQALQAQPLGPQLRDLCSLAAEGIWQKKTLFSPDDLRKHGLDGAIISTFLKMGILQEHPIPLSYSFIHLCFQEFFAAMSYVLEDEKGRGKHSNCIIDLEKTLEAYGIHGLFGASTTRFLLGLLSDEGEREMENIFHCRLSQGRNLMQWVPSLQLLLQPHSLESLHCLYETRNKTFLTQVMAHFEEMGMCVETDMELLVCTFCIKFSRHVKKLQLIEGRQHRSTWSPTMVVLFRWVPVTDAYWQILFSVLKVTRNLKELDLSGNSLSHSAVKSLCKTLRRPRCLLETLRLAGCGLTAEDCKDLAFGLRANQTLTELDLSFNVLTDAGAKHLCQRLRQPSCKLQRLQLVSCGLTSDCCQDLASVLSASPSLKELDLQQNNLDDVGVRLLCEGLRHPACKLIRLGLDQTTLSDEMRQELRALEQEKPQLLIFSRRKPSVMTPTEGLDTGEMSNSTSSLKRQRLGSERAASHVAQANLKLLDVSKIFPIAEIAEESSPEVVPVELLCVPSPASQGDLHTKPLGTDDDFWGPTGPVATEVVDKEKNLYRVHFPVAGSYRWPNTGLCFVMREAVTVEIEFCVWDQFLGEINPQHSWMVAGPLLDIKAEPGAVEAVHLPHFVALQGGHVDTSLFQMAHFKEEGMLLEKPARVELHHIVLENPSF
# Chain of NACHT, LRR and PYD domains-containing protein 1 (Q9C000 1213-1473 limits assumed): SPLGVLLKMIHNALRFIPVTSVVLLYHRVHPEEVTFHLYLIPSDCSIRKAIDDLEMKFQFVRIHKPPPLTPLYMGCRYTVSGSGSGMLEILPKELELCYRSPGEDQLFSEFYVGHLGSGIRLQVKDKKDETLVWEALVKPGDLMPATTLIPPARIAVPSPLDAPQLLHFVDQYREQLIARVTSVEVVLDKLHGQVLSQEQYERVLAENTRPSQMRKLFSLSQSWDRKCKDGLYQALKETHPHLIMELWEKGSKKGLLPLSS
# Chain of Lysosomal acid glucosylceramidase (P04062 whole entry, the tested form may be a part): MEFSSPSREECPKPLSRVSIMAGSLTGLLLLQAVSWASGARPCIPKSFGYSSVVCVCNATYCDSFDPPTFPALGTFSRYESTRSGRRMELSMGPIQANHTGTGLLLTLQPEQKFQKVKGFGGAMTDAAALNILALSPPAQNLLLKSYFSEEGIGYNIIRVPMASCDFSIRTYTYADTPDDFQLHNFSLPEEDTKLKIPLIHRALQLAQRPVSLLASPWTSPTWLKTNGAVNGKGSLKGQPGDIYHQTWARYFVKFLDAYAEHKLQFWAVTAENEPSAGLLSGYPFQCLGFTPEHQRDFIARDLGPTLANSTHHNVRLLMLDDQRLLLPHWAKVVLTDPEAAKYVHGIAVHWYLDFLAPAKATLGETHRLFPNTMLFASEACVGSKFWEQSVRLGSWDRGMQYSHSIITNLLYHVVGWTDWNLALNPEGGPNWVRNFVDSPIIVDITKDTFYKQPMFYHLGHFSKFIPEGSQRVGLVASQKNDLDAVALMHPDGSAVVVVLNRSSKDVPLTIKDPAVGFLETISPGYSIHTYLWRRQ
compound,measurement,setting,value
CCn1c(/C=N/Nc2ccc(C(=O)O)cc2)nc2ccccc21,EC50,[1],88.3 µM (not active)
O=C1/C(=C/c2cccnc2)SC(=S)N1C1CCS(=O)(=O)C1 (stereo unspecified),EC50,[2],445 nM (active)
same,IC50,Saccharomyces cerevisiae,49.1 µM (active)
same,IC50,[3],33.8 µM (active)
Cc1ccc(C(=O)c2cc([N+](=O)[O-])ccc2N2CCOCC2)c(C)c1,EC50,BJ [4],764 nM (active)
same,EC50,BJ [5],14.2 µM (active)
same,IC50,J774.A1,< 50 nM (inactive)
same,EC50,BJ [6],780 nM (inconclusive)
same,EC50,[7],637 nM (active)
same,IC50,[8],> 80 µM (inactive)
Nc1cccc2c1C(=O)N(c1ccccc1)C2=O,IC50,Protein Rev,7.86 µM (active)
same,IC50,[9],> 100 µM (not active)
same,IC50,[10],2.9 µM (active)
same,EC50,[11],17 µM (active)
same,IC50,[12],12.4 µM (active)
same,EC50,[13],10.5 µM (active)
same,IC50,[14],> 66 µM (inactive)
same,IC50,[15],24 µM (inactive)
same,AC50,[16],> 52 µM (inactive)
CC1(C)CC(=O)N(CC(=O)O)c2ccccc2S1,EC50,[17],> 50 µM (not active)
Cc1cccc(C(=O)ONC(=N)Cc2cccc3ccccc23)c1,IC50,[18],1.62 µM (active)
